Source: BindingDB's records for doi:10.1016/S0960-894X(01)80421-2 (1993)

Target: Chorismate synthase (Escherichia coli) (UniProt P12008)
Test: Compound was evaluated for the binding affinity towards Escherichia coli chorismate synthase

Sequence of Chorismate synthase (Escherichia coli) (P12008 whole entry, looked up): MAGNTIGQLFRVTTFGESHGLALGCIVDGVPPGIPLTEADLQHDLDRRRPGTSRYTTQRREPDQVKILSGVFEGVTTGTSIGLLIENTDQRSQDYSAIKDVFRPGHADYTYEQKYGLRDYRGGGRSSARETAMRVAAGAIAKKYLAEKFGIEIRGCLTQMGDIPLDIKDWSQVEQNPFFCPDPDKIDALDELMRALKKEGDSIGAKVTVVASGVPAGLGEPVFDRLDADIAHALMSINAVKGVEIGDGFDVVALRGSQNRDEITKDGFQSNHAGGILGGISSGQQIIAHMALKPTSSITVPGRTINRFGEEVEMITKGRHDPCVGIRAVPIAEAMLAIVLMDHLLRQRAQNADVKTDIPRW

## Cc1cc2nc3c(=O)[nH]c(=O)nc-3n(C[C@H](O)[C@H](O)[C@H](O)COP(=O)(O)O)c2cc1C [E101a]
  Kd: > 20 µM
